For one assay, the target named is Full-length inactive AKT1 (Homo sapiens, UniProt P31749). Briefly: Inactive Akt Alpha Screen Assay. The following applies: AlphaScreen assay (values not marked with *); read-out: Akt1 IC50, (AlphaScreen) (μM) (or if marked with “*” HTRF assay). The class given is biochemical. The gist of the method: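 AlphaScreen read-out (excitation 640 nm, emission 570 nm) after 90 min incubation at room temperature in the dark. Signal comes from crosstide phosphorylation by AKT1, which was activated by added PDK1, MAPKAPK2, ATP and lipid vesicles, captured via phospho-AKT substrate antibody and streptavidin beads.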
Chain of Full-length inactive AKT1 (P31749 whole entry): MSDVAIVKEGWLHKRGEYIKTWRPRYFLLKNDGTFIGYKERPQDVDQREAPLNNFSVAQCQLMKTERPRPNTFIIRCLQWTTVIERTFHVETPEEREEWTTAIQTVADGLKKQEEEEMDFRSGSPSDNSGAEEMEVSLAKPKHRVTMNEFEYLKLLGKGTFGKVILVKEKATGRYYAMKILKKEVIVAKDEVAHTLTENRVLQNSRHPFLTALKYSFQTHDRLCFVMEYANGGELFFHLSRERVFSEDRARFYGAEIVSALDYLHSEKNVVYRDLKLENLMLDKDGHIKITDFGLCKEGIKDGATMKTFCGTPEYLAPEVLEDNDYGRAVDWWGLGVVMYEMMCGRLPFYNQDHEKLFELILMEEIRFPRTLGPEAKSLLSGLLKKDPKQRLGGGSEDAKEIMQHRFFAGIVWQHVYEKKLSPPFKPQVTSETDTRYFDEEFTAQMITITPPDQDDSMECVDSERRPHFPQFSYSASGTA
For orientation: Alpha assays give light when donor and acceptor beads are brought close together.
`Nc1ncccc1-c1nc2ccc(-c3cccc(N4CCC5(CC4)OCCO5)c3)nc2n1-c1ccc(C2(N)CCC2)cc1` [Example 464, 3-{3-[4-(1-aminocyclobutyl)phenyl]-5-[3-(1,4-dioxa-8-azaspiro[4.5]dec-8-yl)phenyl]-3H-imidazo[4,5-b]pyridin-2-yl}pyridin-2-amine]: the IC50 (usually the concentration needed to halve the response being measured) worked out at 0.011 µM.

Take `Nc1ncccc1-c1nc2ccc(-c3cccc(N4CCC(O)CC4)c3)nc2n1-c1ccc(C2(N)CCC2)cc1` [Example 462, 1-(3-{3-[4-(1-aminocyclobutyl)phenyl]-2-(2-aminopyridin-3-yl)-3H-imidazo[4,5-b]pyridin-5-yl}phenyl)piperidin-4-ol]: the IC50 is 0.01 µM.

The same assay, now with this note: values not marked with "*": AlphaScreen assay; read-out: Akt1 IC50, (AlphaScreen).
In the case of `Nc1ncccc1-c1nc2cc(-c3cncnc3)cnc2n1-c1ccc(CNC(=O)c2ccccc2)cc1` [Example 142, N-{4-[2-(2-aminopyridin-3-yl)-6-pyrimidin-5-yl-3H-imidazo[4,5-b]pyridin-3-yl]benzyl}benzamide], the IC50 is 0.19 µM.

For `Cc1ccc(NC(=O)Cc2ccc(-n3c(-c4cccnc4N)nc4cccnc43)cc2)cc1` [Example 127], the IC50 worked out at 0.108 µM.

Consider `CC(=O)Nc1ccc(C(=O)NCc2ccc(-n3c(-c4cccnc4N)nc4cccnc43)cc2)cc1` [Example 71], for which the IC50 was found to be 0.605 µM.

The assay is the same for the next values; noted with them: values not marked with "*"; read-out: Akt1 IC50, (AlphaScreen).
For `Nc1ncccc1-c1nc2cccnc2n1-c1ccc(C(=O)Nc2ccc3c(c2)C(=O)OC3)cc1` [Example 182, 4-[2-(2-aminopyridin-3-yl)-3H-imidazo[4,5-b]pyridin-3-yl]-N-(3-oxo-1,3-dihydro-2-benzofuran-5-yl)benzamide], the IC50 is 1.1 µM.

For the compound `COc1ccccc1C(=O)NCc1ccc(-n2c(-c3cccnc3N)nc3cc(C)cnc32)cc1` [Example 221, N-(4-(2-(2-aminopyridin-3-yl)-6-methyl-3H-imidazo[4,5-b]pyridin-3-yl)benzyl)-2-methoxybenzamide], the IC50 was found to be 0.26 µM.

In the case of `CNC(=O)Cc1ccc(-n2c(-c3cccnc3N)nc3ccc(-c4cccc(NC(C)=O)c4)nc32)cc1` [Example 341, 2-(4-(5-(3-acetamidophenyl)-2-(2-aminopyridin-3-yl)-3H-imidazo[4,5-b]pyridin-3-yl)phenyl)-N-methylacetamide], the IC50 was found to be 0.032 µM.

As to `Nc1ncccc1-c1nc2ccc(-c3cc4ccccc4o3)nc2n1-c1ccc(C2(N)CCC2)cc1` [Example 423, 3-{3-[4-(1-aminocyclobutyl)phenyl]-5-(1-benzofuran-2-yl)-3H-imidazo[4,5-b]pyridin-2-yl}pyridin-2-amine], the IC50 amounted to 0.0066 µM.

As to `Cc1cnc2c(c1)nc(-c1cccnc1N)n2-c1ccc(CNC(=O)c2ccccc2C(F)(F)F)cc1` [Example 281, N-(4-(2-(2-aminopyridin-3-yl)-6-methyl-3H-imidazo[4,5-b]pyridin-3-yl)benzyl)-2-(trifluoromethyl)benzamide], the IC50 is 0.071 µM.

As to `Nc1ncccc1-c1nc2cc(-c3ccc(CO)cc3)cnc2n1-c1ccc(CNC(=O)c2ccccc2)cc1` [Example 173, N-(4-{2-(2-aminopyridin-3-yl)-6-[4-(hydroxymethyl)phenyl]-3H-imidazo[4,5-b]pyridin-3-yl}benzyl)benzamide], the IC50 was found to be 0.026 µM.

Regarding `Nc1ncccc1-c1nc2ccc(-c3cc[nH]c3)nc2n1-c1ccc(CNC(=O)c2cccc(F)c2)cc1` [Example 309, N-(4-(2-(2-aminopyridin-3-yl)-5-(1H-pyrrol-3-yl)-3H-imidazo[4,5-b]pyridin-3-yl)benzyl)-3-fluorobenzamide], the IC50 is 0.023 µM.

As to `Nc1ncccc1-c1nc2cc(Br)cnc2n1-c1ccc(CNS(=O)(=O)c2cccc(F)c2)cc1` [Example 160, N-{4-[2-(2-aminopyridin-3-yl)-6-bromo-3H-imidazo[4,5-b]pyridin-3-yl]benzyl}-3-fluorobenzenesulfonamide], the IC50 was determined as 0.33 µM.

In the case of `Nc1ncccc1-c1nc2ccc(-c3cccc(C(=O)O)c3)nc2n1-c1ccc(C2(N)CCC2)cc1` [Example 376, 3-(3-(4-(1-aminocyclobutyl)phenyl)-2-(2-3aminopyridin-3-yl)-H-imidazo[4,5-b]pyridin-5-yl)benzoic acid], the IC50 turned out to be 0.0038 µM.

Values taken from patent US8501770B2 (ArQule, Inc., priority 2009, dated 2013).
